Test results published in ChEMBL document CHEMBL4396971, “Discovery of potent and orally bioavailable indazole-based glucagon receptor antagonists for the treatment of type 2 diabetes” (Bioorg Med Chem Lett, 2019).
Active and inactive are the calls of the source. The rule behind the calls is not given here.

Columns and labels:
Cytochrome P450 2D6 = Cytochrome P450 2D6 (Homo sapiens, UniProt P10635); assay: Inhibition of CYP2D6 (unknown origin) using dextromethorphan as substrate; format: ADME
Canis familiaris [1] = assay: Antidiabetic activity in Beagle dog assessed as reduction in blood glucose AUC at 10 mg/kg, po administered via gavage as single dose 90 mins prior to glucagon challenge by glucometer analysis; format: functional, organism-based; settings: Canis lupus familiaris
[2] = Half life in C57 mouse at 20 mg/kg, po; format: ADME, organism-based; settings: in vivo
Cytochrome P450 2C19 = Cytochrome P450 2C19 (Homo sapiens, UniProt P33261); assay: Inhibition of CYP2C19 (unknown origin) using S-Mephenytoin as substrate; format: ADME
[3] = Antagonist activity at GCGR in dog hepatocytes assessed as inhibition of glucagon-induced cAMP by LANCE TR-FRET assay; format: cell-based, Canis lupus familiaris
[4] = Stability in dog liver microsomes assessed as parent compound remaining at 1 uM incubated for 10 mins; format: ADME, Canis lupus familiaris, Microsome; settings: liver microsomes, read-out: Stability
[5] = Clearance in dog at 2 mg/kg, iv or 10 mg/kg, po; format: ADME, organism-based, Canis lupus familiaris; settings: in vivo
[6] = Half life in dog at 2 mg/kg, iv; format: ADME, organism-based, Canis lupus familiaris; settings: in vivo
Cytochrome P450 1A2 = target: T1, Cytochrome P450 1A2 (Homo sapiens, UniProt P05177); assay: Inhibition of CYP1A2 (unknown origin) using phenacetin as substrate; format: ADME
T1 sequence (P05177 whole entry): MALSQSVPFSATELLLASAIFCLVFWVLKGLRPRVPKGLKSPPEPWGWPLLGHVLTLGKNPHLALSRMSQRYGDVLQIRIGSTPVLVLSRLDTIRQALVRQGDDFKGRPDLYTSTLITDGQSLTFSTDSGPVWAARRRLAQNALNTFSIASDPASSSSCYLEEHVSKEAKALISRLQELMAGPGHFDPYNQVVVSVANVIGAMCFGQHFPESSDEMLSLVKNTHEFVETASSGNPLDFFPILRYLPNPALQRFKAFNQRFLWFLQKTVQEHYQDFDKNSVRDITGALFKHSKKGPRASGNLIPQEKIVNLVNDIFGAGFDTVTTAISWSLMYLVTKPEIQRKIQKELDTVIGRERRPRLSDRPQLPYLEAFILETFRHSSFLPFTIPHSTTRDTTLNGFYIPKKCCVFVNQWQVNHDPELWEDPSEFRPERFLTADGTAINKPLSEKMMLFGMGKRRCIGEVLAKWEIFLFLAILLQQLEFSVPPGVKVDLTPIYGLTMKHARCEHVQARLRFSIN

[7] = Stability in mouse liver microsomes assessed as parent compound remaining at 1 uM incubated for 10 mins; format: ADME, Microsome; settings: liver microsomes, read-out: Stability
[8] = Volume of distribution at steady state in C57 mouse at 5 mg/kg, iv or 20 mg/kg, po; format: ADME, organism-based; settings: in vivo, read-out: Vdss
[9] = AUClast in Sprague-Dawley rat at 2 mg/kg, iv or 10 mg/kg, po; format: ADME, organism-based; settings: in vivo
[10] = AUClast in dog at 2 mg/kg, iv or 10 mg/kg, po; format: ADME, organism-based, Canis lupus familiaris; settings: in vivo
[11] = Protein binding in human plasma at 1 uM; format: ADME, cell-free; settings: read-out: PPB
Cytochrome P450 3A4 [12] = target: T2, Cytochrome P450 3A4 (Homo sapiens, UniProt P08684); assay: Inhibition of CYP3A4 (unknown origin) using testosterone as substrate; format: ADME
[13] = Half life in Sprague-Dawley rat at 2 mg/kg, iv; format: ADME, organism-based; settings: in vivo
Cytochrome P450 3A4 [14] = target: T2, Cytochrome P450 3A4; assay: Inhibition of CYP3A4 (unknown origin) using midazolam as substrate; format: ADME
[15] = Cmax in dog at 2 mg/kg, iv or 10 mg/kg, po; format: ADME, organism-based, Canis lupus familiaris; settings: in vivo
[16] = Volume of distribution at steady state in Sprague-Dawley rat at 2 mg/kg, iv or 10 mg/kg, po; format: ADME, organism-based; settings: in vivo, read-out: Vdss
[17] = Oral bioavailability in dog at 10 mg/kg; format: ADME, organism-based, Canis lupus familiaris; settings: in vivo
[18] = Clearance in C57 mouse at 5 mg/kg, iv or 20 mg/kg, po; format: ADME, organism-based; settings: in vivo
[19] = Stability in human liver microsomes assessed as parent compound remaining at 1 uM incubated for 10 mins; format: ADME, Microsome; settings: read-out: Stability
[20] = Clearance in Sprague-Dawley rat at 2 mg/kg, iv or 10 mg/kg, po; format: ADME, organism-based; settings: in vivo
[21] = Stability in rat liver microsomes assessed as parent compound remaining at 1 uM incubated for 10 mins; format: ADME, Microsome; settings: read-out: Stability
Cytochrome P450 2C9 = Cytochrome P450 2C9 (Homo sapiens, UniProt P11712); assay: Inhibition of CYP2C9 (unknown origin) using tolbutamide as substrate; format: ADME
Canis familiaris [22] = assay: Antidiabetic activity in Beagle dog assessed as reduction in blood glucose level at 10 mg/kg, po administered via gavage as single dose 90 mins prior to glucagon challenge measured up to 60 mins post glucagon challenge by glucometer analysis; format: functional, organism-based; settings: Canis lupus familiaris
[23] = AUClast in C57 mouse at 5 mg/kg, iv or 20 mg/kg, po; format: ADME, organism-based; settings: in vivo
[24] = Half life in dog at 10 mg/kg, po; format: ADME, organism-based, Canis lupus familiaris; settings: in vivo
[25] = Oral bioavailability in C57 mouse at 20 mg/kg; format: ADME, organism-based; settings: in vivo
[26] = Cmax in Sprague-Dawley rat at 2 mg/kg, iv or 10 mg/kg, po; format: ADME, organism-based; settings: in vivo
[27] = Half life in Sprague-Dawley rat at 10 mg/kg, po; format: ADME, organism-based; settings: in vivo
[28] = Oral bioavailability in Sprague-Dawley rat at 10 mg/kg; format: ADME, organism-based; settings: in vivo
[29] = Cmax in C57 mouse at 5 mg/kg, iv or 20 mg/kg, po; format: ADME, organism-based; settings: in vivo
[30] = Half life in C57 mouse at 5 mg/kg, iv; format: ADME, organism-based; settings: in vivo
[31] = Volume of distribution at steady state in dog at 2 mg/kg, iv or 10 mg/kg, po; format: ADME, organism-based, Canis lupus familiaris; settings: in vivo, read-out: Vdss
Glucagon receptor [32] = target: T3, Glucagon receptor (Homo sapiens, UniProt P47871); assay: Potency index, ratio of Ki of 3-(4-((1R)-1-(4-methoxy-5-(2-methyl-4-(trifluoromethyl)phenyl)-1H-indazol-1-yl)-3-methylbutyl)benzamido)propanoic acid to Ki of compound for human full length GCGR transfected in HEK293 cells assessed as reduction in glucagon-induced cAMP response by LANCE TR-FRET assay; format: functional, cell-based
Canis familiaris [33] = assay: Antidiabetic activity in Beagle dog assessed as reduction in blood glucose AUC administered orally via gavage as single dose 90 mins prior to glucagon challenge by glucometer analysis; format: functional, organism-based; settings: Canis lupus familiaris
Glucagon receptor [34] = target: T3, Glucagon receptor; assay: Inhibition of human full length GCGR transfected in HEK293 cells assessed as reduction in glucagon-induced cAMP response by LANCE TR-FRET assay; format: functional, cell-based

T2 sequence (P08684 whole entry): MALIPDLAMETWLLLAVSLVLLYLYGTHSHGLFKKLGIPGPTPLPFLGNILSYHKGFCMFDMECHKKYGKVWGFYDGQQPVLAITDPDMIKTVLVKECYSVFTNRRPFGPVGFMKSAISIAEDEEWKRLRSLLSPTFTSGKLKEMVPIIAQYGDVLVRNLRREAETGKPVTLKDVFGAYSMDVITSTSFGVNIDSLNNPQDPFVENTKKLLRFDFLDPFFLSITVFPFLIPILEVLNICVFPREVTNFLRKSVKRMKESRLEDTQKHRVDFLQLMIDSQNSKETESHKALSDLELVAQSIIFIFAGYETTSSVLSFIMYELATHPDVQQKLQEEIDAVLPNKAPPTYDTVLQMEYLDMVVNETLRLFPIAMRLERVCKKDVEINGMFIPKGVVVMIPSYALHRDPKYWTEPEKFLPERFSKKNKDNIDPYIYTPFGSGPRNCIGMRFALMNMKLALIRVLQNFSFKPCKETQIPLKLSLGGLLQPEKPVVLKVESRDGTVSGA
Sequence of Cytochrome P450 2D6 (P10635 whole entry): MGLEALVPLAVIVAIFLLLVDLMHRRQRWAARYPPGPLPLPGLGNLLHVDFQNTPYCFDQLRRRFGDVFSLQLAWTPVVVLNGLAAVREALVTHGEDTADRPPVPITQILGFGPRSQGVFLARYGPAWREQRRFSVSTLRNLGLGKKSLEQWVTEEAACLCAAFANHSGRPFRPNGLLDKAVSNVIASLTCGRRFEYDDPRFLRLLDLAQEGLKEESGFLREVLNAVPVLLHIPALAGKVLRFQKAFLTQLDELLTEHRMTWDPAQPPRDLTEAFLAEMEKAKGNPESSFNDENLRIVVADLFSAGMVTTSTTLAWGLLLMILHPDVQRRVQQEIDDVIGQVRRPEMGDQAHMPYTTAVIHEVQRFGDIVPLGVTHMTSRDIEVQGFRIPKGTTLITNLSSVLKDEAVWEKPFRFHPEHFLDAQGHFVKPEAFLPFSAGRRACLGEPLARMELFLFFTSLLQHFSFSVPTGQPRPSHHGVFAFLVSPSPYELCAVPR
Sequence of Cytochrome P450 2C9 (P11712 whole entry): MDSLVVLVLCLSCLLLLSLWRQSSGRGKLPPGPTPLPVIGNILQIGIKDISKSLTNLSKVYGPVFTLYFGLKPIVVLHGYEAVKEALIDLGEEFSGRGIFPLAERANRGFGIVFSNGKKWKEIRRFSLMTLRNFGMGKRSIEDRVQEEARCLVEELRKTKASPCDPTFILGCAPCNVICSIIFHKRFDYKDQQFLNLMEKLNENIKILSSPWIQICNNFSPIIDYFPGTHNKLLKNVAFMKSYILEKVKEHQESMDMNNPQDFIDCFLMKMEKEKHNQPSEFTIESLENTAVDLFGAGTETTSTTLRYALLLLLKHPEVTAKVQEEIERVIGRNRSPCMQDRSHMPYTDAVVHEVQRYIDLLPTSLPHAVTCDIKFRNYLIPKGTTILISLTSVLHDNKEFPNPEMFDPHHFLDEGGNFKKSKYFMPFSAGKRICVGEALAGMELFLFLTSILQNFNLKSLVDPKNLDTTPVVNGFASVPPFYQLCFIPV
Sequence of Cytochrome P450 2C19 (P33261 whole entry): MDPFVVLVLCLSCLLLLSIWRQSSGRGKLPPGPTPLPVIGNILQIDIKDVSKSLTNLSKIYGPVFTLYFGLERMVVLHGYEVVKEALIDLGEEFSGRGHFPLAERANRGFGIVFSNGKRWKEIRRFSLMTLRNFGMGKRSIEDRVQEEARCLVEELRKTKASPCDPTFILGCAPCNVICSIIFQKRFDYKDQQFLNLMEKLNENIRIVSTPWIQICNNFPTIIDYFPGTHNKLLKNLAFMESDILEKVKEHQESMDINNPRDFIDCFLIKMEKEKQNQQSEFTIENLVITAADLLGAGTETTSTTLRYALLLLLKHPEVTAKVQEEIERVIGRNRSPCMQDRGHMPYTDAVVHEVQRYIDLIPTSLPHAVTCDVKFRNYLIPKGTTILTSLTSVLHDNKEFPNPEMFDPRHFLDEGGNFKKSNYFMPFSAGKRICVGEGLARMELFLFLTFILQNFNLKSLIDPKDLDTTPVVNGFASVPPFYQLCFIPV
T3 sequence (P47871 whole entry): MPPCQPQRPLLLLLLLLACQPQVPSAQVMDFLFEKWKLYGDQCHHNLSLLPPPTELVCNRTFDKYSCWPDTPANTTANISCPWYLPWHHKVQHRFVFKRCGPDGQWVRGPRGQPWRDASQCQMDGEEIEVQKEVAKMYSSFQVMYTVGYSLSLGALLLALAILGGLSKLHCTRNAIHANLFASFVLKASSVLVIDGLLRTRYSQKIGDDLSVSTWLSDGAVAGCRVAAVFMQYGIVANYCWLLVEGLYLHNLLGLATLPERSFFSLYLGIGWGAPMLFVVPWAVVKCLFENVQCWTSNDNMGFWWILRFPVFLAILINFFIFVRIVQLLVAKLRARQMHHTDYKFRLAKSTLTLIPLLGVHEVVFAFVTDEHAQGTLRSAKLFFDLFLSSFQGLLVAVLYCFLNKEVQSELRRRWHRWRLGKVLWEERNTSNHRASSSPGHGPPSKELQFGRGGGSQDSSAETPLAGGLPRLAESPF

Row | SMILES | IC50 (Cytochrome P450 2D6) [µM] | half-life [2] [h] | IC50 (Cytochrome P450 2C19) [µM] | Ki [3] [µM] | remaining at 10 min, 1 µM [4] [%] | clearance [5] [mL/min/kg] | half-life [6] [h] | IC50 (Cytochrome P450 1A2) [µM] | remaining at 10 min, 1 µM [7] [%] | Vd [8] [L/kg] | AUC(0-t) [9] [µM·h] | AUC(0-t) [10] [µM·h] | fraction unbound at 1 µM [11] | IC50 (Cytochrome P450 3A4 [12]) [µM] | half-life [13] [h] | IC50 (Cytochrome P450 3A4 [14]) [µM] | Cmax [15] [µM] | Vd [16] [L/kg] | remaining at 10 min, 1 µM [19] [%] | remaining at 10 min, 1 µM [21] [%] | other results
1 | Cc1cc(C(F)(F)F)ccc1-c1cc2cnn([C@@H](CC(C)C)c3ccc(C(=O)NCCC(=O)O)cc3)c2cc1C | > 10 | 6.5 | > 10 | 0.03 | 80 | 0.21 | 13.3 | > 10 | 70 | 0.87 | 6.5 | 422 | 0.0001 | > 10 | 1.6 | > 10 | 27.7 | 2.67 | 81 | 116 | inhibition (Canis familiaris [1]): Active; bioavailability [17]: 39.5%; clearance [18]: 1.61 mL/min/kg; clearance [20]: 26.8 mL/min/kg; IC50 (Cytochrome P450 2C9): > 10 µM; inhibition (Canis familiaris [22]): Active; AUC(0-t) [23]: 242 µM·h; half-life [24]: 16.9 h; bioavailability [25]: 70.1%; Cmax [26]: 0.8 µM; half-life [27]: 3.1 h; bioavailability [28]: 51.9%; Cmax [29]: 18.9 µM; half-life [30]: 7.2 h; Vd [31]: 0.22 L/kg
2 | Cc1cc(C(F)(F)F)ccc1-c1cc2cn([C@@H](CC(C)C)c3ccc(C(=O)NCCC(=O)O)cc3)nc2cc1C | > 10 | 5 | > 10 | 0.65 | 68 | 0.19 | 21.7 | > 10 | 79 | 1.56 | 9.2 | 468 | 0.0001 | > 10 | 3.7 | > 10 | 35 | 2.94 | 57 | 113 | bioavailability [17]: 45%; clearance [18]: 4.78 mL/min/kg; clearance [20]: 12.7 mL/min/kg; IC50 (Cytochrome P450 2C9): > 10 µM; AUC(0-t) [23]: 90.1 µM·h; half-life [24]: 20.2 h; bioavailability [25]: 74.4%; Cmax [26]: 1.1 µM; half-life [27]: 4.3 h; bioavailability [28]: 32.3%; Cmax [29]: 7.9 µM; half-life [30]: 4.5 h; Vd [31]: 0.26 L/kg
3 | Cc1cc2c(cnn2[C@@H](CC(C)C)c2ccc(C(=O)NCCC(=O)O)cc2)cc1-c1ccc(C(F)(F)F)cc1Cl | > 10 | 9.1 | > 10 | 0.02 | 65 | 0.21 | 16 | > 10 | 99 | 1.45 | 5.6 | 544 | 0.0001 | > 10 | 3.6 | > 10 | 34.1 | 3.32 | 62 | 67 | inhibition (Canis familiaris [1]): Active; inhibition (Canis familiaris [33]): Dose-dependent effect; bioavailability [17]: 57.3%; clearance [18]: 2.47 mL/min/kg; clearance [20]: 18.7 mL/min/kg; IC50 (Cytochrome P450 2C9): > 10 µM; inhibition (Canis familiaris [22]): Active; AUC(0-t) [23]: 254 µM·h; half-life [24]: 18.9 h; bioavailability [25]: 121%; Cmax [26]: 0.5 µM; half-life [27]: 7.1 h; bioavailability [28]: 35.4%; Cmax [29]: 15.6 µM; half-life [30]: 7.8 h; Vd [31]: 0.27 L/kg
4 | CC(C)C[C@@H](c1ccc(C(=O)NCCC(=O)O)cc1)n1ncc2cc(-c3ccc(C(F)(F)F)cc3)ccc21 | – | – | – | – | – | – | – | – | – | – | – | – | – | – | – | – | – | – | – | – | Ki (Glucagon receptor [34]): 0.46 µM

Second part, led by results:

Row | IC50 (Cytochrome P450 2D6) [µM] | half-life [2] [h] | IC50 (Cytochrome P450 2C19) [µM] | Ki [3] [µM] | remaining at 10 min, 1 µM [4] [%] | clearance [5] [mL/min/kg] | half-life [6] [h] | IC50 (Cytochrome P450 1A2) [µM] | remaining at 10 min, 1 µM [7] [%] | Vd [8] [L/kg] | AUC(0-t) [9] [µM·h] | AUC(0-t) [10] [µM·h] | fraction unbound at 1 µM [11] | IC50 (Cytochrome P450 3A4 [12]) [µM] | half-life [13] [h] | IC50 (Cytochrome P450 3A4 [14]) [µM] | Cmax [15] [µM] | Vd [16] [L/kg] | remaining at 10 min, 1 µM [19] [%] | remaining at 10 min, 1 µM [21] [%] | SMILES | other results
5 | – | – | – | – | 69 | – | – | – | 83 | – | – | – | – | – | – | – | – | – | 95 | 81 | COc1c(-c2ccc(C(F)(F)F)cc2C)ccc2c1cnn2[C@@H](CC(C)C)c1ccc(C(=O)NCCC(=O)O)cc1 | Ratio Ki (Glucagon receptor [32]): 84
6 | – | – | – | – | 76 | – | – | – | 82 | – | – | – | – | – | – | – | – | – | 89 | 84 | COc1c(-c2ccc(C(F)(F)F)cc2Cl)ccc2nn([C@@H](CC(C)C)c3ccc(C(=O)NCCC(=O)O)cc3)cc12 | –
7 | – | – | – | – | 64 | – | – | – | 87 | – | – | – | – | – | – | – | – | – | 93 | 97 | COc1c(-c2ccc(C(F)(F)F)cc2Cl)ccc2c1cnn2[C@@H](CC(C)C)c1ccc(C(=O)NCCC(=O)O)cc1 | –
